Laboratory results reported in patent US12344610B2, “APOL1 inhibitors and methods of use” (Maze Therapeutics, Inc., priority 2022, dated 2025).
Where two headings read alike, the source gives them in different places.

Key:
Type in all cases: cell-based
[1] = test system: HEK293 cells overexpressing APOL1 G2; experiment: APOL1 G2 HEK293 cell rescue assay (reversal of cell death caused by overexpression of APOL1); details: geometric mean of at least 2 assay runs, † = single assay run
Procedure, shortened: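 Each compound tested in duplicate wells on one plate per run, with values usually the geometric mean across at least two runs on different days, occasionally from one run only. Read-out: concentration giving half-maximal rescue of APOL1 G2 overexpression-induced death of HEK293 cells.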

[2] = test system: HEK293 clonal cell line overexpressing APOL1 G1; experiment: APOL1 G1 HEK293 cell rescue assay (Example B3); details: geometric mean of at least 2 runs, † = single run, ¥ = concentration at 50% rescue estimated (no sigmoidal curve)
Procedure, shortened: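 Rescue of cell death caused by APOL1 G1 overexpression was measured in a clonal HEK293 line. Compounds were tested in duplicate on one plate, and EC50s were geometric means across at least two runs on different days. Some values are estimated 50%-rescue concentrations where curve fitting failed.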

[3] = test system: Trypanosoma brucei Lister 427 VSG221 with APOL1 G0 recombinant protein; experiment: APOL1 G0 trypanosome cell rescue assay (Example B5); details: geometric mean of at least 2 assay runs, † = single assay run
Experimental: (§1) APOL1 G0/G1/G2 viability assay for measurement of cytotoxicity reversal by compound in trypanosomes (APOL1 G0/G1/G2 trypanosome cell rescue assay).
(§2) APOL1 protein expression and purification. The mature from of APOL1 proteins, residues 28-398, were expressed from a pET28a vector with an N-terminal His-tag and TEV cleavage site. Proteins were expressed in Escherichia coli BL21-CodonPlus (DE3)-RIPL cells. Liter cultures of terrific broth were grown at 37° C. until an OD600 of ˜0.8 was reached and then induced with isopropyl β-D-1-thiogalactopyranoside (IPTG; final concentration of 500 μM). Afterwards, cultures were grown for 3 hours at 37° C. For protein purification, cell pellets were resuspended in lysis buffer (50 mM Tris, pH 8.5, 5 mM EDTA, 0.5 mM DTT, 0.5 mM PMSF) supplemented with a cocktail of protease inhibitors. Cells were lysed by sonication, centrifuged, and the resulting pellet was collected. The homogenized pellet was resuspended in wash buffer (50 mM Tris, pH 8.5, 0.5 M NaCl, 5 mM EDTA, 0.5 mM DTT, 0.5 mM PMSF, protease inhibitor cocktail) and collected by centrifugation. Inclusion body dissolution was then conducted as previously reported (PNAS 112(9) (2015) 2894-2899; www.pnas.org/cgi/doi/10.1073/pnas.1421953112; herein incorporated by reference in its entirety). The solubilized APOL1 protein was applied to a nickel column (HisTrap, GE Life Sciences) preequilibrated in buffer A (50 mM Tris, pH 8.5, 0.15 M NaCl, 1% zwittergent 3-14, protease inhibitor cocktail). The resin was washed with buffer B (50 mM Tris, pH 8.5, 0.15 M NaCl, 0.1% DDM) and TEV cleavage was conducted on column overnight. Afterwards, the column was washed with buffer B, followed by His-washing buffer (50 mM Tris, pH 8.5, 0.15 M NaCl, 0.1% DDM, 10 mM imidazole). The protein was then removed from the resin using His-elution buffer (50 mM Tris, pH 8.5, 0.15 M NaCl, 0.1% DDM, 250 mM imidazole). The sample was further purified by size exclusion chromatography using a Superdex 200 Increase column (GE Life Sciences) in 50 mM Tris, pH 8.5, 0.15 M NaCl, and 0.1% DDM buffer. All APOL1 proteins (G0, G1, and G2) were generated at Viva Biotech (Shanghai) Ltd.
(§3) Modified HMI-9 media preparation (https://tryps.rockefeller.edu/trypsru2_culture_media_preparation.html; herein incorporated by reference in its entirety). Trypanosomes were cultured in modified HMI-9 media consisting of IMDM (ThermoFisher, 12440053), 10% heat-inactivated FBS (Gibco, 10082-147), 10% Serum Plus (Sigma-Aldrich, 14008C), 1×HMI-9 supplement stock, and 1% hypoxanthine stock. The 10×HMI-9 supplement stock was made by dissolving 280 mg bathocuproine disulfonic acid (Sigma-Aldrich, 146625), 1820 mg cysteine (add after bathocuproine) (Sigma-Aldrich, 30089), 1100 mg pyruvic acid (Sigma-Aldrich, 107360), 100 mg uracil (Sigma-Aldrich, U0750), 100 mg cytosine (Sigma-Aldrich, C3506) and 140 μL 2-mercaptoethanol (Sigma-Aldrich, M3148) in 1000 mL of water. The resulting solution was aliquoted and stored at −20° C. The hypoxanthine stock was made by dissolving 4 g of NaOH into 1000 mL of water. Afterwards, 13.6 g hypoxanthine (Sigma-Aldrich, H9377) was added to this mixture. The resulting solution was aliquoted and stored at −20° C.
(§4) Assay Setup. Trypanosoma brucei Lister 427 VSG221 (ATCC, PRA-382) cells were cultured in modified HMI-9 media. All experiments were performed in 384-well, white, solid bottom, tissue culture treated plates (Greiner, 781080). Assay ready plates were generated with duplicate 11-point compound dilution series that consisted of 2-fold stepwise dilutions (0.4% DMSO final). To each well, was added 20 μL of 2 μg/mL of APOL1 G0, G1, or G2 recombinant protein in modified HMI-9 media using a MultiDrop Combi (final APOL1 protein concentration=[…]). Trypanosomes were counted using a hemacytometer and diluted in modified HMI-9 media to a concentration of 1.25×10^4 cell/mL. […]

[4] = test system: Trypanosoma brucei Lister 427 VSG221 with APOL1 G1 recombinant protein; experiment: APOL1 G1 trypanosome cell rescue assay (Example B5); details: geometric mean of at least 2 assay runs, † = single assay run
Experimental: as §1, §2, §3, §4

[5] = test system: Trypanosoma brucei Lister 427 VSG221 with APOL1 G2 recombinant protein; experiment: APOL1 G2 trypanosome cell rescue assay (Example B5); details: geometric mean of at least 2 assay runs, † = single assay run
Experimental: as §1, §2, §3, §4

[6] = HEK293 clonal line overexpressing APOL1 G1
[7] = read-out: APOL1 G0 Trypanosome Rescue EC50, Trypanosoma brucei Lister 427 VSG221 with APOL1 G0 recombinant protein, 20 hours, CellTiter-Glo
[8] = read-out: APOL1 G1 Trypanosome Rescue EC50, Trypanosoma brucei Lister 427 VSG221 with APOL1 G1 recombinant protein, 20 hours, CellTiter-Glo
[9] = read-out: APOL1 G2 Trypanosome Rescue EC50, Trypanosoma brucei Lister 427 VSG221 with APOL1 G2 recombinant protein, 20 hours, CellTiter-Glo
[10] = Homo sapiens, HEK293, HEK293 overexpressing APOL1 G2
[11] = Homo sapiens, HEK293, HEK293 clonal line overexpressing APOL1 G1
[12] = Trypanosoma brucei, 20 h, read-out: APOL1 G0 Trypanosome Rescue EC50, Trypanosoma brucei Lister 427 VSG221 with APOL1 G0 recombinant protein, 20 hours, CellTiter-Glo
[13] = Trypanosoma brucei, 20 h, read-out: APOL1 G1 Trypanosome Rescue EC50, Trypanosoma brucei Lister 427 VSG221 with APOL1 G1 recombinant protein, 20 hours, CellTiter-Glo
[14] = Trypanosoma brucei, 20 h, read-out: APOL1 G2 Trypanosome Rescue EC50, Trypanosoma brucei Lister 427 VSG221 with APOL1 G2 recombinant protein, 20 hours, CellTiter-Glo

## CN1C(=O)C2(CCN(CCOc3ccc(C4(S(C)(=O)=O)CC(O)C4)cc3)CC2)c2cc(C(F)F)ccc21 (single isomer, unassigned) [Compound 279, 5-(difluoromethyl)-1-methyl-1′-(2-{4-[(trans) or (cis)-3-hydroxy-1-methanesulfonylcyclobutyl]phenoxy}ethyl)-1,2-dihydrospiro[indole-3,4′-piperidin]-2-one]
[1]; HEK293 overexpressing APOL1 G2
  EC50: 60 nM
[2]; [6]
  EC50: 234 nM
[3]; [7]
  EC50: 213 nM
[4]; [8]
  EC50: 283 nM
[5]; [9]
  EC50: 83.1 nM

## CS(=O)(=O)C1(c2ccc(OCCN3CCC4(CC3)C(=O)Nc3ccc(C(F)F)cc34)cc2)CC(O)C1 (single isomer, unassigned) [Compound 282, 5-(difluoromethyl)-1′-(2-{4-[(trans) or (cis)-3-hydroxy-1-methanesulfonylcyclobutyl]phenoxy}ethyl)-1,2-dihydrospiro[indole-3,4′-piperidin]-2-one]
[1]; HEK293 overexpressing APOL1 G2
  EC50: 130 nM
[2]; [6]
  EC50: 383 nM
[3]; [7]
  EC50: 181 nM
[4]; [8]
  EC50: 230 nM
[5]; [9]
  EC50: 59.8 nM

## O=C1CCc2cc(OCCN3CCC4(CC3)C(=O)Nc3ccc(C(F)F)cc34)cnc2N1C1CC(CO)C1 (single isomer, unassigned) [Compound 309, 5-(difluoromethyl)-1′-[2-({7-oxo-8-[(cis) or (trans)-3-(hydroxymethyl)cyclobutyl]-5,6,7,8-tetrahydro-1,8-naphthyridin-3-yl}oxy)ethyl]-1,2-dihydrospiro[indole-3,4′-piperidin]-2-one]
[1]; [10]
  EC50: 55.9 nM
[2]; [11]
  EC50: 134 nM
[3]; [12]
  EC50: 58.2 nM
[4]; [13]
  EC50: 70.6 nM
[5]; [14]
  EC50: 23.4 nM

## CC1(O)CC(CN2C(=O)CCc3cc(OCCN4CCC5(CC4)C(=O)Nc4ccc(C(F)F)cc45)cnc32)C1 (single isomer, unassigned) [Compound 311, 5-(difluoromethyl)-1′-{2-[(7-oxo-8-{[(cis) or (trans)-3-hydroxy-3-methylcyclobutyl]methyl}-5,6,7,8-tetrahydro-1,8-naphthyridin-3-yl)oxy]ethyl}-1,2-dihydrospiro[indole-3,4′-piperidin]-2-one]
[1]; [10]
  EC50: 38.3 nM
[2]; [11]
  EC50: 100 nM
[3]; [12]
  EC50: 37.4 nM
[4]; [13]
  EC50: 50.3 nM
[5]; [14]
  EC50: 13.8 nM

## CC1(O)CC(CN2C(=O)CCc3cc(OCCN4CCC5(CC4)C(=O)Nc4ccc(C(F)F)cc45)cnc32)C1 (single isomer, unassigned) [Compound 312, 5-(difluoromethyl)-1′-{2-[(7-oxo-8-{[(trans) or (cis)-3-hydroxy-3-methylcyclobutyl]methyl}-5,6,7,8-tetrahydro-1,8-naphthyridin-3-yl)oxy]ethyl}-1,2-dihydrospiro[indole-3,4′-piperidin]-2-one]
[1]; HEK293 overexpressing APOL1 G2
  EC50: 24.3 nM
[2]; [6]
  EC50: 66.5 nM
[3]; [7]
  EC50: 28.2 nM
[4]; [8]
  EC50: 34.4 nM
[5]; [9]
  EC50: 10.1 nM

## CC1(O)CC(CN2C(=O)CCc3cc(OCCN4CCC5(CC4)C(=O)Nc4ccc(Cl)cc45)cnc32)C1 (single isomer, unassigned) [Compound 313, 5-chloro-1′-{2-[(7-oxo-8-{[(cis) or (trans)-3-hydroxy-3-methylcyclobutyl]methyl}-5,6,7,8-tetrahydro-1,8-naphthyridin-3-yl)oxy]ethyl}-1,2-dihydrospiro[indole-3,4′-piperidin]-2-one]
[1]; HEK293 overexpressing APOL1 G2
  EC50: 63.3 nM
[2]; [6]
  EC50: 135 nM
[3]; [12]
  EC50: 54.5 nM
[4]; [8]
  EC50: 71.8 nM
[5]; [14]
  EC50: 20.2 nM

## CC1(O)CC(c2ncc(OCCN3CCC4(CC3)C(=O)Nc3ccc(Cl)cc34)cn2)C1 (single isomer, unassigned) [Compound 392, 5-chloro-1′-[2-({2-[(trans) or (cis)-3-hydroxy-3-methylcyclobutyl)pyrimidin-5-yl}oxy)ethyl]-1,2-dihydrospiro[indole-3,4′-piperidin]-2-one]
[1]; HEK293 overexpressing APOL1 G2
  EC50: 27.1 nM
[2]; [11]
  EC50: 89.9 nM
[3]; [7]
  EC50: 70 nM
[4]; [8]
  EC50: 79.4 nM
[5]; [9]
  EC50: 28.5 nM

## O=C1CCc2cc(OCCN3CCC4(CC3)C(=O)Nc3ccc(Cl)cc34)cnc2N1[C@H]1C[C@](O)(C2CC2)C1 (single isomer, unassigned) [Compound 398, 5-chloro-1′-[2-({7-oxo-8-[(cis)-3-cyclopropyl-3-hydroxycyclobutyl]-5,6,7,8-tetrahydro-1,8-naphthyridin-3-yl}oxy)ethyl]-1,2-dihydrospiro[indole-3,4′-piperidin]-2-one]
[1]; [10]
  EC50: 20.1 nM
[2]; [11]
  EC50: 374 nM
[3]; [12]
  EC50: 53.6 nM
[4]; [13]
  EC50: 52.2 nM
[5]; [14]
  EC50: 18 nM

## CC(CO)(c1ncc(OCCN2CCC3(CC2)C(=O)Nc2ccc(Cl)cc23)cc1C(F)(F)F)S(C)(=O)=O (single isomer, unassigned) [Compound 402, 5-chloro-1′-[2-({6-[(2S or 2R)-1-hydroxy-2-methanesulfonylpropan-2-yl]-5-(trifluoromethyl)pyridin-3-yl}oxy)ethyl]-1,2-dihydrospiro[indole-3,4′-piperidin]-2-one]
[1]; HEK293 overexpressing APOL1 G2
  EC50: 23.8 nM
[2]; [6]
  EC50: 35.7 nM
[3]; [12]
  EC50: 33.6 nM
[4]; [13]
  EC50: 42.7 nM
[5]; [14]
  EC50: 16.5 nM
